Values joined by “and” are separate entries in the source; they are usually repeats but may differ in a detail not shown here. Identical values can stand only once. Marks after values point to notes of the source that are not given here.
Assay: Toxicity assessment (CTCAE version 4): treatment-related AEs, DLTs, dose reductions, RP2D; phase 1 NANT2015-02
Experimental: Five DLs (45, 60, 75, 95 and 115 mg/m^2/dose) were assessed in A1, using a 3 + 3 design. […] Myeloid growth factor was given 24 hours after the completion of topotecan/cyclophosphamide on B2, according to institutional standards. Instructions and hands-on training for a tablet dispersion formulation, validated by Pfizer, was provided to families of patients who could not swallow tablets.
Initially, this was the only DL planned, but, with a subsequent amendment, a second DL was added to cohort A2 (150 mg). […] Finally, because of the nature of the patients in cohort A2 (which had only two planned DLs), an expansion of up to six additional patients was planned for the highest DL tested with zero or one DLT in six DLT-evaluable patients. Accrual could continue in the expansion cohort as long as none, or at most one, of the patients experienced DLT in the DLT observation period; if two or more patients experienced DLT in the DLT observation period, this would lead to a discussion of the suitability of this dose. The probability of observing […] with DLT, out of six patients, is 0.11, 0.22, 0.47, 0.68 and 0.77 when the true probability of DLT is 0.10, 0.15, 0.25, 0.35 and 0.40, respectfully.
Patients who were not evaluable for DLT were replaced for dose-escalation purposes. […] The MTD was defined as the highest DL tested at which zero of six or one of six patients experience DLT. After determination of the MTD and review of all toxicities, and provided that other safety considerations were acceptable, the MTD was labeled the RP2D.
Toxicity was graded according to CTCAE version 4. DLT definitions included only toxicities deemed at least possibly related to therapy. For A1 and A2, hematologic DLT was defined as grade 4 thrombocytopenia or grade 4 neutropenia >7-day duration or a delay in the start of subsequent course by more than 14 days due to ongoing thrombocytopenia or neutropenia, in the absence of bone marrow disease progression seen on clinically indicated bone marrow biopsy (if performed). For cohort B2, hematological DLT is defined as a delay in the start of subsequent course by more than 14 days due to ongoing thrombocytopenia or neutropenia, in the absence of bone marrow disease progression seen on clinically indicated bone marrow biopsy after the first dose reduction of cyclophosphamide and topotecan. Non-hematologic DLT was defined as any non-hematologic toxicity that delayed the start of a subsequent cycle by more than 14 days or any grade ≥3 toxicity, with the exception of the following grade 3 toxicities: nausea, vomiting, anorexia or dehydration resolving to grade ≤2 within 72 hours; increase in hepatic transaminase or electrolyte abnormality resolving eligibility levels within 7 days; diarrhea persisting for less than 72 hours; fever; infection; febrile neutropenia; high cholesterol or triglycerides if responsive (to ≤grade 2) with statin treatment; weight gain; and hyperglycemia if responsive (to <grade 2) with dietary modification.

[1] = Cohort A1, one line per patient (PID)
[2] = Cohort A2, neurotoxicity, one line per patient (PID)
[3] = Cohort A2, one line per patient (PID)
[4] = patients <18 years, single agent
[5] = single-agent lorlatinib across all ages, grade 1–4 treatment-related

Compound: C[C@H]1Oc2cc(cnc2N)-c2c(nn(C)c2C#N)CN(C)C(=O)c2ccc(F)cc21 [Lorlatinib, (10R)-7-amino-12-fluoro-2,10,16-trimethyl-15-oxo-10,15,16,17-tetrahydro-2H-8,4-(metheno)pyrazolo[4,3-h][2,5,11]-benzoxadiazacyclotetradecine-3-carbonitrile]
- Nausea: Toxicity Maximum Grade per patient [1]: 1
- Neutrophil count decreased: Toxicity Maximum Grade per patient [1]: 2
- Peripheral sensory neuropathy: Toxicity Maximum Grade per patient [1]: 2 and 1
- Platelet count decreased: Toxicity Maximum Grade per patient [1]: 1
- Tinnitus: Toxicity Maximum Grade per patient [1]: 1
- Vomiting: Toxicity Maximum Grade per patient [1]: 1
- Weight gain: Toxicity Maximum Grade per patient [1]: 2 and 3 and 1
- White blood cell decreased: Toxicity Maximum Grade per patient [1]: 1 and 3
- Patients with DLT in course 1 (Cohort A2, 100 mg): 0
- Patients with DLT in course 2 (Cohort A2, 100 mg): 0
- Patients with DLT in other courses (Cohort A2, 100 mg): 2^c
- Patients with DLT in course 1 (Cohort A2, 150 mg): 1^d
- Patients with DLT in course 2 (Cohort A2, 150 mg): 2^e,f
- Patients with DLT in other courses (Cohort A2, 150 mg): 3^e,f,g
- Toxicity Maximum Grade per patient: Sinus tachycardia (Cohort A2, patient PID 8, CTCAE grade): 1
- Neutrophil count decreased (Cohort A2, grade 1-2, 3, 4 in c8-c10): 0 (0) n (%)
- Hypersomnia (CNS effect) (Cohort A2, grade 1-4 in c5-c8): 0 (0)
- Agitation: Toxicity Maximum Grade per patient [2]: 4 and 3 and 1
- Anxiety: Toxicity Maximum Grade per patient [2]: 4 and 3 and 2 and 1
- Cognitive disturbance: Toxicity Maximum Grade per patient [2]: 1 and 2
- Concentration impairment: Toxicity Maximum Grade per patient [2]: 1 and 2 and 3
- Depression: Toxicity Maximum Grade per patient [2]: 1 and 3
- Hallucinations: Toxicity Maximum Grade per patient [2]: 1 and 4
- Headache: Toxicity Maximum Grade per patient [2]: 1
- Memory impairment: Toxicity Maximum Grade per patient [2]: 1 and 2 and 3
- Alanine aminotransferase increased: Toxicity Maximum Grade per patient [3]: 1 and 2
- Alkaline phosphatase increased: Toxicity Maximum Grade per patient [3]: 1
- Anemia: Toxicity Maximum Grade per patient [3]: 3 and 1 and 2
- Aspartate aminotransferase increased: Toxicity Maximum Grade per patient [3]: 1 and 2
- Cholesterol high: Toxicity Maximum Grade per patient [3]: 2 and 3 and 1
- Creatinine increased: Toxicity Maximum Grade per patient [3]: 1 and 2
- Diarrhea: Toxicity Maximum Grade per patient [3]: 2 and 1
- Edema limbs: Toxicity Maximum Grade per patient [3]: 1 and 2
- Electrocardiogram QT corrected interval prolonged: Toxicity Maximum Grade per patient [3]: 1
- Fatigue: Toxicity Maximum Grade per patient [3]: 1
- Flatulence: Toxicity Maximum Grade per patient [3]: 1
- Gastroesophageal reflux disease: Toxicity Maximum Grade per patient [3]: 2 and 1
- Hyperglycemia: Toxicity Maximum Grade per patient [3]: 1 and 3
- Hypertriglyceridemia: Toxicity Maximum Grade per patient [3]: 3 and 2 and 1
- INCREASED APPETITE: Toxicity Maximum Grade per patient [3]: 1 and 2
- Irritability: Toxicity Maximum Grade per patient [3]: 4
- Lymphocyte count decreased: Toxicity Maximum Grade per patient [3]: 4 and 1
- Nausea: Toxicity Maximum Grade per patient [3]: 1 and 2
- Peripheral sensory neuropathy: Toxicity Maximum Grade per patient [3]: 3 and 2 and 1
- Platelet count decreased: Toxicity Maximum Grade per patient [3]: 1 and 2
- Tinnitus: Toxicity Maximum Grade per patient [3]: 1
- Vomiting: Toxicity Maximum Grade per patient [3]: 1
- Weight gain: Toxicity Maximum Grade per patient [3]: 2 and 1 and 3
- White blood cell decreased: Toxicity Maximum Grade per patient [3]: 1 and 2
- Patients with DLT in course 1 (Cohort B2, DL4 (95 mg/m^2)): 0
- Patients with DLT in course 2 (Cohort B2, DL4 (95 mg/m^2)): 0
- Patients with DLT in other courses (Cohort B2, DL4 (95 mg/m^2)): 0
- Patients with DLT in course 1 (Cohort B2, DL5 (115 mg/m^2)): 0
- Patients with DLT in course 2 (Cohort B2, DL5 (115 mg/m^2)): 0
- Patients with DLT in other courses (Cohort B2, DL5 (115 mg/m^2)): 1^h
- Amnesia (CNS effect) (Cohort B2, grade 1-4 in c9-c12): 0 (0)
- Delirium (CNS effect) (Cohort B2, grade 1-4 in c9-c12): 0 (0)
- Delusions (CNS effect) (Cohort B2, grade 1-4 in c9-c12): 0 (0)
- Depressed level of consciousness (CNS effect) (Cohort B2, grade 1-4 in c9-c12): 0 (0)
- Dizziness (CNS effect) (Cohort B2, grade 1-4 in c9-c12): 0 (0)
- Dysarthria (CNS effect) (Cohort B2, grade 1-4 in c9-c12): 0 (0)
- Euphoria (CNS effect) (Cohort B2, grade 1-4 in c9-c12): 0 (0)
- Mania (CNS effect) (Cohort B2, grade 1-4 in c9-c12): 0 (0)
- Paresthesia (CNS effect) (Cohort B2, grade 1-4 in c9-c12): 0 (0)
- Psychosis (CNS effect) (Cohort B2, grade 1-4 in c9-c12): 0 (0)
- Restlessness (CNS effect) (Cohort B2, grade 1-4 in c9-c12): 0 (0)
- Stuttering (CNS effect) (Cohort B2, grade 1-4 in c9-c12): 0 (0)
- Suicidal ideation (CNS effect) (Cohort B2, grade 1-4 in c9-c12): 0 (0)
- incidence of peripheral neuropathy (adults, single agent): 27%
- RP2D (in combination with topotecan/cyclophosphamide, patients <18 years, daily (DL5)): 115 mg/m^2
- hypertriglyceridemia, patients with AE (lorlatinib combined with topotecan/cyclophosphamide, <18 years): 89%
- Grade 1–2 peripheral limb edema [4]: 4%
- incidence of peripheral neuropathy [4]: 13%
- Grade 1–2 peripheral limb edema (patients ≥18 years, single agent): 47%
- RP2D <18 years relative to the adult RP2D (single agent, 115 mg/m^2/dose daily): approximately 200%
- RP2D (single agent, patients <18 years, daily (DL5)): 115 mg/m^2
- RP2D (single agent, patients ≥18 years, daily): 150 mg
- hypercholesterolemia / elevated cholesterol, patients with AE [5]: 79%
- hypertriglyceridemia, patients with AE [5]: 90%
- weight gain, patients with AE [5]: 87%
- patients developing grade 2–4 CNS effects (≥18 years (cohort A2), four of 15): 27%
- patients requiring dose reduction due to toxicities (≥18 years, 150 mg (n = 10)): 50%

From article PMC10202811 (Nature Medicine, 2023)
